Laboratory results reported in patent US9456604B2, “Herbicide composition” (Syngenta Crop Protection, LLC, priority 2008, dated 2016).

Columns and labels:
Type in all cases: in vivo
corn = assay: Greenhouse trial, effect of pH on selectivity: four corn varieties; conditions: for % phytotoxicity observed, Corn "Cecilia" 8 DAA / % phytotoxicity observed, Corn "Lorenzo" 8 DAA / % phytotoxicity observed, Corn "Marista" 8 DAA / % phytotoxicity observed, Corn "Blizzard" 28 DAA / % phytotoxicity observed, Corn "Cecilia" 28 DAA / % phytotoxicity observed, Corn "Lorenzo" 28 DAA / % phytotoxicity observed, Corn "Marista" 28 DAA / % phytotoxicity observed, Corn "Blizzard" 8 DAA: early POST, 200 l/ha
Protocol: (§1) A greenhouse trial was conducted to look at the effect of pH on the selectivity of an emulsifiable concentrate composition comprising compound B (compound of formula wherein R^1=methoxy-propyl and R^2═CHF2). Applications were made early POST using four corn varieties and eight weeds (Broad leaf weeds: Amaranthus retroflexus (AMARE), Ipomoea hederacea (IPOHE), Polygonum convolvulus (POLCO) Grasses: Digitaria sanuinalis (DIGSA), Echinochloa crus-galli (ECHCG), Eriochloa villosa (ERBVI), Panicum dichotomiflorum (PANDI), Setaria viridus (SETVI)). The spray volume applied was 200 l/ha. Phytotoxicity evaluations were made 8 days after application (DAA) and/or 28 DAA. Results are provided as % phytotoxicity observed wherein 0=no visible phytotoxicity to 100=complete phytotoxicity.

Setaria viridus (SETVI) = assay: Greenhouse trial, effect of pH on selectivity: weed; conditions: early POST, 200 l/ha
Protocol: as §1

[1] = tested on: Eriochloa villosa (ERBVI); assay: as above; conditions: early POST, 200 l/ha
Protocol: as §1

[2] = tested on: Panicum dichotomiflorum (PANDI); assay: as above; conditions: early POST, 200 l/ha
Protocol: as §1

[3] = tested on: Ipomoea hederacea (IPOHE); assay: as above; conditions: early POST, 200 l/ha
Protocol: as §1

[4] = tested on: Amaranthus retroflexus (AMARE); assay: as above; conditions: early POST, 200 l/ha
Protocol: as §1

[5] = tested on: Digitaria sanuinalis (DIGSA); assay: as above; conditions: early POST, 200 l/ha
Protocol: as §1

[6] = tested on: Polygonum convolvulus (POLCO); assay: as above; conditions: early POST, 200 l/ha
Protocol: as §1

[7] = tested on: Echinochloa crus-galli (ECHCG); assay: as above; conditions: early POST, 200 l/ha
Protocol: as §1

COCCCc1nc(C(F)F)ccc1C(=O)C1C(=O)C2CCC(C2)C1=O (stereo not drawn) [Compound B]
25%: % phytotoxicity observed, Corn "Lorenzo" 28 DAA (corn; 100 g ai/ha, pH 3, 28 DAA) | % phytotoxicity observed, Corn "Blizzard" 8 DAA (corn; 200 g ai/ha, pH 3, 8 DAA) | % phytotoxicity observed, Corn "Lorenzo" 8 DAA (corn; 200 g ai/ha, pH 8, 8 DAA) | % phytotoxicity observed, Corn "Lorenzo" 28 DAA (corn; 200 g ai/ha, pH 8, 28 DAA)
20%: % phytotoxicity observed, Corn "Lorenzo" 8 DAA (corn; 100 g ai/ha, pH 3, 8 DAA) | % phytotoxicity observed, Corn "Lorenzo" 8 DAA (corn; 100 g ai/ha, pH 8, 8 DAA) | % phytotoxicity observed, Corn "Lorenzo" 28 DAA (corn; 100 g ai/ha, pH 8, 28 DAA) | % phytotoxicity observed, Corn "Cecilia" 8 DAA (corn; 200 g ai/ha, pH 3, 8 DAA) | % phytotoxicity observed, Corn "Blizzard" 28 DAA (corn; 200 g ai/ha, pH 3, 28 DAA) | % phytotoxicity observed, Corn "Cecilia" 28 DAA (corn; 200 g ai/ha, pH 3, 28 DAA) | % phytotoxicity observed, Corn "Blizzard" 8 DAA (corn; 200 g ai/ha, pH 8, 8 DAA) | % phytotoxicity observed, Corn "Cecilia" 8 DAA (corn; 200 g ai/ha, pH 8, 8 DAA)
10%: % phytotoxicity observed, Corn "Blizzard" 28 DAA (corn; 100 g ai/ha, pH 3, 28 DAA) | % phytotoxicity observed, Corn "Cecilia" 28 DAA (corn; 100 g ai/ha, pH 3, 28 DAA) | % phytotoxicity observed, Corn "Blizzard" 28 DAA (corn; 100 g ai/ha, pH 8, 28 DAA) | % phytotoxicity observed, Corn "Cecilia" 28 DAA (corn; 100 g ai/ha, pH 8, 28 DAA) | % phytotoxicity observed, Corn "Blizzard" 28 DAA (corn; 200 g ai/ha, pH 8, 28 DAA) | % phytotoxicity observed, Corn "Cecilia" 28 DAA (corn; 200 g ai/ha, pH 8, 28 DAA)
98%: % phytotoxicity observed, SETVI 8 DAA (Setaria viridus (SETVI); 200 g ai/ha, pH 8, 8 DAA) | % phytotoxicity observed, ERBVI 8 DAA ([1]; 100 g ai/ha, pH 8, 8 DAA) | % phytotoxicity observed, ERBVI 8 DAA ([1]; 200 g ai/ha, pH 8, 8 DAA) | % phytotoxicity observed, PANDI 8 DAA ([2]; 100 g ai/ha, pH 3, 8 DAA) | % phytotoxicity observed, PANDI 8 DAA ([2]; 100 g ai/ha, pH 8, 8 DAA) | % phytotoxicity observed, AMARE 8 DAA ([4]; 100 g ai/ha, pH 3, 8 DAA) | % phytotoxicity observed, AMARE 8 DAA ([4]; 200 g ai/ha, pH 8, 8 DAA) | % phytotoxicity observed, ECHCG 8 DAA ([7]; 200 g ai/ha, pH 3, 8 DAA)
85%: % phytotoxicity observed, IPOHE 8 DAA ([3]; 100 g ai/ha, pH 8, 8 DAA) | % phytotoxicity observed, DIGSA 8 DAA ([5]; 100 g ai/ha, pH 3, 8 DAA) | % phytotoxicity observed, DIGSA 8 DAA ([5]; 100 g ai/ha, pH 8, 8 DAA)
15%: % phytotoxicity observed, Corn "Marista" 28 DAA (corn; 200 g ai/ha, pH 3, 28 DAA)
95%: % phytotoxicity observed, IPOHE 8 DAA ([3]; 200 g ai/ha, pH 3, 8 DAA) | % phytotoxicity observed, AMARE 8 DAA ([4]; 100 g ai/ha, pH 8, 8 DAA) | % phytotoxicity observed, DIGSA 8 DAA ([5]; 200 g ai/ha, pH 8, 8 DAA) | % phytotoxicity observed, POLCO 8 DAA ([6]; 200 g ai/ha, pH 3, 8 DAA) | % phytotoxicity observed, ECHCG 8 DAA ([7]; 100 g ai/ha, pH 8, 8 DAA) | % phytotoxicity observed, ECHCG 8 DAA ([7]; 200 g ai/ha, pH 8, 8 DAA)
significantly decreased: phytotoxicity observed in corn when applied at pH 8 rather than pH 3 (corn; pH 8 versus pH 3, greenhouse trial, Table C)
100%: % phytotoxicity observed, SETVI 8 DAA (Setaria viridus (SETVI); 200 g ai/ha, pH 3, 8 DAA) | % phytotoxicity observed, PANDI 8 DAA ([2]; 200 g ai/ha, pH 3, 8 DAA) | % phytotoxicity observed, PANDI 8 DAA ([2]; 200 g ai/ha, pH 8, 8 DAA) | % phytotoxicity observed, AMARE 8 DAA ([4]; 200 g ai/ha, pH 3, 8 DAA) | % phytotoxicity observed, DIGSA 8 DAA ([5]; 200 g ai/ha, pH 3, 8 DAA)
70%: % phytotoxicity observed, POLCO 8 DAA ([6]; 100 g ai/ha, pH 8, 8 DAA)
5%: % phytotoxicity observed, Corn "Cecilia" 8 DAA (corn; 100 g ai/ha, pH 3, 8 DAA) | % phytotoxicity observed, Corn "Marista" 8 DAA (corn; 100 g ai/ha, pH 3, 8 DAA) | % phytotoxicity observed, Corn "Marista" 28 DAA (corn; 100 g ai/ha, pH 3, 28 DAA) | % phytotoxicity observed, Corn "Cecilia" 8 DAA (corn; 100 g ai/ha, pH 8, 8 DAA) | % phytotoxicity observed, Corn "Marista" 8 DAA (corn; 100 g ai/ha, pH 8, 8 DAA) | % phytotoxicity observed, Corn "Marista" 28 DAA (corn; 100 g ai/ha, pH 8, 28 DAA) | % phytotoxicity observed, Corn "Marista" 8 DAA (corn; 200 g ai/ha, pH 8, 8 DAA) | % phytotoxicity observed, Corn "Marista" 28 DAA (corn; 200 g ai/ha, pH 8, 28 DAA)
80%: % phytotoxicity observed, ERBVI 8 DAA ([1]; 100 g ai/ha, pH 3, 8 DAA) | % phytotoxicity observed, IPOHE 8 DAA ([3]; 100 g ai/ha, pH 3, 8 DAA) | % phytotoxicity observed, POLCO 8 DAA ([6]; 100 g ai/ha, pH 3, 8 DAA) | % phytotoxicity observed, ECHCG 8 DAA ([7]; 100 g ai/ha, pH 3, 8 DAA)
90%: % phytotoxicity observed, SETVI 8 DAA (Setaria viridus (SETVI); 100 g ai/ha, pH 3, 8 DAA) | % phytotoxicity observed, SETVI 8 DAA (Setaria viridus (SETVI); 100 g ai/ha, pH 8, 8 DAA) | % phytotoxicity observed, ERBVI 8 DAA ([1]; 200 g ai/ha, pH 3, 8 DAA) | % phytotoxicity observed, IPOHE 8 DAA ([3]; 200 g ai/ha, pH 8, 8 DAA) | % phytotoxicity observed, POLCO 8 DAA ([6]; 200 g ai/ha, pH 8, 8 DAA)
30%: % phytotoxicity observed, Corn "Lorenzo" 8 DAA (corn; 200 g ai/ha, pH 3, 8 DAA) | % phytotoxicity observed, Corn "Marista" 8 DAA (corn; 200 g ai/ha, pH 3, 8 DAA) | % phytotoxicity observed, Corn "Lorenzo" 28 DAA (corn; 200 g ai/ha, pH 3, 28 DAA)
